Experiments:
TLR3 = TLR3 ISRE luciferase reporter assay in 293T/TLR3 cells; type: cell-based, human; conditions: for Fold induction above Reovirus dsRNA (293T/TLR3 reporter): 293T/TLR3 cells, reovirus genomic RNA 2 µg/ml, peptides 2 µM, ISRE luciferase reporter
Experimental: Luciferase reporter assays were performed according to the protocol of [36]. Briefly, HEK 293T cells were plated in white-walled 96-well plates at 4.4×10^4 cells/well and transfected with plasmids pUNO-huTLR3 (0.5 ng/well), pISRE-Luc (30 ng/well) and phRL-TK (5 ng/well) using Lipofectamine 2000. The cells were grown for 24 h to allow expression from the plasmids. […] After 18–24 h of incubation, luciferase activity was determined using the Dual-Glo Luciferase assay system (Promega).

TLR3 signaling [1] = assay: poly(I:C)-induced IL6 production by BEAS2B cells (ELISA); type: cell-based, human; conditions: for Fold induction above poly(I:C) induced IL6 production (BEAS2B): BEAS2B cells, 0.13 µg/ml poly(I:C) ± peptides (5 µM), IL6 ELISA, number of experiments in parentheses, duplicate or triplicate per experiment
Experimental: (§1) BEAS2B cells were plated at 1.5×10^4 cells/well in 96-well plates. 24 h after plating, the media was replaced with 50 µl of media containing the indicated treatments. Unless otherwise noted, poly(I:C) and LPS were added to the medium of cells to final concentrations of 0.13 µg/ml and 1 µg/ml, respectively. To activate RIG-I, 10 nM shR9 with a 5′ triphosphate was transfected into cells using Lipofectamine 2000 (Invitrogen, Carlsbad, CA). Supernatants were collected after 18-24 h and assayed for IL6 or IL8 secretion using an ELISA kit according to the manufacturer's protocol (BD Biosciences, San Diego, CA). The IL6 or IL8 level was calculated based on a standard curve fitted using a sigmoidal variable slope dose-response using software from GraphPad Prism (La Jolla, CA) and normalized to […] per well. For PBMCs, an initial 150,000 cells per well were suspended in 100 µl of RPMI medium (Invitrogen) containing 10% FBS and incubated overnight at 37°C, 5% CO2. The cells were treated with poly(I:C) at 5 µg/ml in the absence or presence of LL37 (5.6 µM) for 20–24 h. […] The supernatants were collected and frozen until analysis. Cytokine levels for IP10, IL1α and MCP1 were measured using a Milliplex assay kit (Millipore, Billerica, MA).

TLR4 signaling = assay: LPS-induced IL6 production by BEAS2B cells (ELISA); type: cell-based, human; conditions: LPS 1 µg/ml, T3/T4 0.6–10 µM, Tat and Arg(9) 10 µM
Experimental: as §1

[2] = Negative-stain electron microscopy of particle dimensions; type: physicochemical; conditions: negative-stain TEM, pH 7.4, linear regression
Experimental: Poly(I:C) at 50 µg/ml (low molecular weight, Invitrogen) was incubated alone or with LL37 or Sc37 (each at 10 µM) in Tris-buffered saline, pH 7.4 at 4°C for 15 min. Sample of 10 µl was placed on top of a glow-discharged 400 mesh carbon-coated copper grid (EMS). After one min incubation at RT, the drop was removed by absorption onto filter paper. The grids containing the samples were then stained with 2% uranium acetate for 20 s. Excess stain was removed and the grids were air-dried for 15 min. Micrographs of the grids were taken with JEOL transmission microscope at 80 kV, using 40,000x magnification. The micrographs were collected and measurement of length and width of particles were calculated using EMAN software as described by. Data points for each treatment were fitted using linear regression and the slope of each line was calculated using GraphPad Prism software.

BEAS2B cells = assay: WST-1 viability of BEAS2B cells; type: cell-based, human
Experimental: Supplementary file pone.0026632.s002.tif: Figure S2 Effects of LL37 concentration on viability of BEAS2B cells±poly(I:C). Cell viability was assessed using the WST-1 assay (Clontech, Mountain View CA). After treatments, cells were incubated with WST-1 substrate for 4 h and absorbance was measured at 450 nm with 630 nm as reference. The readout performed in the absence of LL37 (i.e. Control) is defined as 100%. […] The graph is representative of five experiments. […] (TIF) Click here for additional data file.

[3] = test system: human peripheral blood mononuclear cells (PBMCs); assay: Cytokine production in human PBMCs (Milliplex); type: cell-based; conditions: peptide 5.6 µM
Experimental: as §1

TLR3 signaling [4] = assay: Viral RNA-induced IL6 production by BEAS2B cells; type: cell-based, human; conditions: Sc37 2.2 µM, n>4
Experimental: Poly(I:C) (Amersham Biosciences or GE Healthcare) was reconstituted in phosphate buffered saline (PBS; Invitrogen, Carlsbad, CA). Size-selected Poly(I:C) of 50–125 bps were generated as described previously. Fluorescently-labeled Cy5-poly(I:C) was made as described in [43]. LPS was from Sigma-Aldrich Inc. DsRNAs from Reovirus were extracted from purified virions (a kind gift from Dr. Danthi, Indiana University). […] The ssRNAs were then adjusted to a 1∶1 molar ratio in PBS and heated to 95°C for five minutes followed by slow cooling to room temperature to allow the strands to anneal to form S4 dsRNA. Plant endornavirus BPEV dsRNA was the kind gift of R. Valverde (Louisana State University, Baton Rouge, LA). Positive-strand ssRNA from hepatitis virus JFH1 was made by in vitro transcription from a cDNA of JFH-1 [63]. Plasmids encoding the wild-type TLR3, TLR4 and RIG-I were from InvivoGen (San Diego, CA). […]
BEAS2B cells were plated at 1.5×10^4 cells/well in 96-well plates. […] The IL6 or IL8 level was calculated based on a standard curve fitted using a sigmoidal variable slope dose-response using software from GraphPad Prism (La Jolla, CA) and normalized to µg/ml per well. […] Cytokine levels for IP10, IL1α and MCP1 were measured using a Milliplex assay kit (Millipore, Billerica, MA).

RQIKIWFQNRRMKWKK [Penetrin, peptide derived from the protein antennapedia; cell-penetrating peptide]
Fold induction above Reovirus dsRNA (293T/TLR3 reporter) (TLR3): 1.1±0.05 (4) fold | Fold induction above poly(I:C) induced IL6 production (BEAS2B) (TLR3 signaling [1]): 2.9±1.2 (3) fold

TRAQRRAAARRNRACCPGCCS [T3, peptide derived from the Brome mosaic virus (BMV) capsid]
Effect on LPS-induced IL6 production (TLR4 signaling): not affected | Fold induction above Reovirus dsRNA (293T/TLR3 reporter) (TLR3): 1.3±0.08 (4) fold | Fold induction above poly(I:C) induced IL6 production (BEAS2B) (TLR3 signaling [1]): 3±0.4 (8) fold

TSAQSSAAASSNSACCPGCCS [T3Ser, variant of the peptide T3 that had the arginines substituted with serines]
Fold induction above Reovirus dsRNA (293T/TLR3 reporter) (TLR3): 1 fold | Fold induction above poly(I:C) induced IL6 production (BEAS2B) (TLR3 signaling [1]; 5 µM): 0.8±0.12 (4) fold | Fold induction above poly(I:C) induced IL6 production (BEAS2B) (TLR3 signaling [1]; listed as T3ser, 5 µM): lost the ability to enhance IL6 production

poly(I:C)
Slope of best fit line of particle lengths and widths [2]: 0.53 ± 0.12 | IL6 levels above basal levels (TLR3 signaling [1]; BEAS2B, poly(I:C) added to medium, n = 12): 15 ± 2.2 fold

CC[C@H](C)[C@H](NC(=O)[C@H](CCCCN)NC(=O)[C@H](CCC(=O)O)NC(=O)[C@H](CCCCN)NC(=O)[C@H](CO)NC(=O)[C@H](CCCCN)NC(=O)[C@H](CCCNC(=N)N)NC(=O)[C@H](Cc1ccccc1)NC(=O)[C@H](Cc1ccccc1)NC(=O)[C@H](CC(=O)O)NC(=O)CNC(=O)[C@H](CC(C)C)NC(=O)[C@@H](N)CC(C)C)C(=O)NCC(=O)N[C@@H](CCCCN)C(=O)N[C@@H](CCC(=O)O)C(=O)N[C@@H](Cc1ccccc1)C(=O)N[C@@H](CCCCN)C(=O)N[C@@H](CCCNC(=N)N)C(=O)N[C@H](C(=O)N[C@H](C(=O)N[C@@H](CCC(N)=O)C(=O)N[C@@H](CCCNC(=N)N)C(=O)N[C@H](C(=O)N[C@@H](CCCCN)C(=O)N[C@@H](CC(=O)O)C(=O)N[C@@H](Cc1ccccc1)C(=O)N[C@@H](CC(C)C)C(=O)N[C@@H](CCCNC(=N)N)C(=O)N[C@@H](CC(N)=O)C(=O)N[C@@H](CC(C)C)C(=O)N[C@H](C(=O)N1CCC[C@H]1C(=O)N[C@@H](CCCNC(=N)N)C(=O)N[C@H](C(=O)N[C@@H](CCC(=O)O)C(=O)N[C@@H](CO)C(=O)O)[C@@H](C)O)C(C)C)[C@@H](C)CC)C(C)C)[C@@H](C)CC [LL37]
Toxicity in the presence of poly(I:C) (BEAS2B cells; BEAS2B, WST-1, LL37 3 µM): did not show significant toxicity | Effect on cell viability in the absence of poly(I:C) (BEAS2B cells; BEAS2B, WST-1, LL37 up to 5 µM, representative of five experiments): no effect on cell viability | Effect on BEAS2B cell viability (BEAS2B cells; at or less than 3 µM, by itself or in the presence of poly(I:C), WST-1, n = 5): minimal effects | Cytotoxicity judged by morphology of PBMCs ([3]; data not shown): no obvious cytotoxicity

LLGNFFRKSKQKIGKQFKRIVQRIKNFFRNLVPRTQS [Sc37]
Effect on IL6 production by the viral RNAs tested (TLR3 signaling [4]): did not increase IL6 production | Slope of best fit line of particle lengths and widths [2]: 0.8 ± 0.05 | Additional increase of reporter levels above that of the Reovirus dsRNAs (TLR3; 293T/TLR3, peptide 2 µM, Reovirus dsRNA, LL37 n = 8, Sc37 n = 4): did not affect reporter activity | Fold induction above Reovirus dsRNA (293T/TLR3 reporter) (TLR3): 1.0±0.03 (9) fold | Increase of IL1α, MCP1 and IP10 levels with poly(I:C) above poly(I:C) or peptide alone ([3]; poly(I:C) 5 µg/ml, 24 h, n = 3): did not significantly increase | Fold induction above poly(I:C) induced IL6 production (BEAS2B) (TLR3 signaling [1]): 1.05±0.11 (6) fold | Enhancement of poly(I:C)-induced IL6 levels compared to poly(I:C) alone (TLR3 signaling [1]; BEAS2B, peptide 2.2 µM, poly(I:C) 0.13 µg/ml, 20 h, LL37 n = 23, Sc37 n = 7): did not enhance IL6 production

YGRKKRRQRRR [Tat47-57, Tat peptide that is rich in basic residues; cell-penetrating peptide]
Effect on LPS-induced IL6 production (TLR4 signaling): no effect on LPS signaling | Fold induction above Reovirus dsRNA (293T/TLR3 reporter) (TLR3): 1.3±0.19 (3) fold | Fold induction above poly(I:C) induced IL6 production (BEAS2B) (TLR3 signaling [1]; 5 µM): 3.7±0.43 (10) fold | Fold induction above poly(I:C) induced IL6 production (BEAS2B) (TLR3 signaling [1]; listed as Tat peptide, 5 µM): at least 2.9 fold

RRRRRRRRR [Arg(9), cell-penetrating peptide of nine arginines]
Effect on LPS-induced IL6 production (TLR4 signaling): no effect on LPS signaling | Fold induction above Reovirus dsRNA (293T/TLR3 reporter) (TLR3): 1.5±0.17 (4) fold

TRAQRRAAARGGGVVIAC [Peptide 3]
Fold induction above Reovirus dsRNA (293T/TLR3 reporter) (TLR3): 1 fold | Fold induction above poly(I:C) induced IL6 production (BEAS2B) (TLR3 signaling [1]): 3±0.62 (8) fold

COc1cc2ncnc(Nc3cccc(Cl)c3)c2cc1OC [tyrphostin AG 1478]
Effect on IL6 production induced by poly(I:C) or poly(I:C) in combination with LL37 (TLR3 signaling [1]; BEAS2B, unpublished observations): had no effect

O=C(O[C@@H]1Cc2c(O)cc(O)cc2O[C@@H]1c1cc(O)c(O)c(O)c1)c1cc(O)c(O)c(O)c1 [EGCG]
Effect on the Tat peptide's enhancement of IL6 production (TLR3 signaling [1]; BEAS2B, data not shown): did not affect

NAKTRRHERRRKLAIER [P22N(14-30), arginine-containing peptide]
Fold induction above Reovirus dsRNA (293T/TLR3 reporter) (TLR3): 1.3±0.14 (4) fold | Fold induction above poly(I:C) induced IL6 production (BEAS2B) (TLR3 signaling [1]; 5 µM): 1.0±0 (3) fold | Fold induction above poly(I:C) induced IL6 production (BEAS2B) (TLR3 signaling [1]; listed as P22(14-30), 5 µM): did not enhance TLR3 signaling

mCRAMP
Enhancement of IL6 production in response to poly(I:C) (TLR3 signaling [1]; BEAS2B, KR18-37 4 µM, mCRAMP 5 µM, poly(I:C) 0.13 µg/ml, 24 h, n = 3): unable to enhance IL6 production

TRAQRRAAARGVQIVYKC [T4, peptide derived from the Brome mosaic virus (BMV) capsid]
Effect on LPS-induced IL6 production (TLR4 signaling): not affected | Fold induction above Reovirus dsRNA (293T/TLR3 reporter) (TLR3): 1 fold | Fold induction above poly(I:C) induced IL6 production (BEAS2B) (TLR3 signaling [1]): 5.6±1.4 (6) fold

Reference: article PMC3198786, “LL37 and Cationic Peptides Enhance TLR3 Signaling by Viral Double-stranded RNAs” (PLoS ONE, 2011)
